# Data: patent US20160031909A1, “PORPHYRAZINE OPTICAL AND DUAL OPTICAL/ MR CONTRAST AND THERAPEUTIC AGENTS” (HOFFMAN/BARRETT, LLC, priority 2013, published 2016)
# Several values for one entry are separate records, joined by “and”; a condition that tells them apart may be missing. Equal entries are not always repeated.
# What was measured:
# [1] = Relaxation time measurements (longitudinal relaxivity r1); type: physicochemical
# Text: The efficiency of a contrast agent in reducing the longitudinal relaxation time of water protons is defined in terms as relaxivity (mM^−1 s^−1) (14). It has been predicted by Solomon-Bloembergen-Morgan theory that a slow molecule tumbling of an MRI agent causes an increase in rotational correlation time, Tr, which in turn results in increase in relaxivity (14, 15). A common approach to increase relaxivity by slowing down the molecular tumbling is to attach Gd(III) complexes to a macromolecule through rigid linkages (12,16). The relaxivity of the monomeric DOTA-Gd(III) (DOTA is 1,4,7,10-tetraazacyclododecane-N,N,N″,N″-tetraacetic acid) used in the clinic is shown for comparison (17). […] Both the Zn-Pz-Gd(III) and Cu-Pz-Gd(III) had higher longitudinal relaxivity than DOTAGd(III).
# Solutions of M-Pz-Gd(III) (M=Zn, Cu) conjugates were dissolved in 500 μL of filtered, deionized H20 (18.2 MΩ·cm) for T1 acquisition. Relaxation times were measured on a Bruker mq60 NMRanalyzer equipped with Minispec v2.51 Rev.00/NT software (Bruker Biospin, Billerica, Mass., USA) operating at 1.41 T (60 MHz) and 37° C. T1 relaxation times were measured using an inversion recovery pulse sequence (T1—ir_mb) using the following parameters: 4 scans per point, 10 data points for fitting, mono-exponential curve fitting, phase cycling, 10 ms first pulse separation, and a recycle delay and final pulse separation≧5 T1. The gadolinium concentrations of each solution were determined using ICP-MS. The inverse of the longitudinal relaxation time (1/ T1, s^−1) was plotted against gadolinium concentration (mM) and fitted to a straight line with an R^2>0.99. The slope of the fitted line was recorded as the relaxivity, r1.
# MDA-MB-231 cells = assay: MR imaging of cell pellets at 9.4 T; type: cell-based
# Experimental: To determine whether the cellular uptake and molecular relativity of Cu-Pz-Gd(III) provides an effective MR contrast agent, MDA-MB-231 breast tumor cells were treated with M-Pz-Gd(III) complexes (200 μM) and centrifuged into capillaries (about 1.0 mm diameter) prior to MR imaging. […] The amount of Gd(III) per cell was determined by ICP-MS for each pellet and, as expected, T1 is inversely proportional to Gd(III) content. (FIG. 2B).
# 9.4 T MR imaging and T1/T2 measurements were performed on a Bruker Biospec 9.4 T imaging spectrometer fitted with shielded gradient coils at 25° C. For cell pellets images, about 2.0×10^6 MDA-MB-231 cells were incubated in 25-cm^2 T-flasks with either Cu-Pz-Gd(III), Zn-Pz-Gd(III) or DOTA-Gd(III) (400 μM wrt Gd(III)) for 24 hours, rinsed with DPBS (3×5 mL/flask), and harvested with 500 μL, of a 0.25-vol % trypLE Express solution. […] The bottom sections of the flame-sealed pipets were then scored with a glass scribe, broken into small capillaries, then imaged using a RF RES 400 1H 089/038 quadrature transmit receive 23-mm volume coil (Bruker BioSpin, Billerica, Mass., USA).
# Spin-lattice relaxation times (T1) were measured using a […] (RARE-VTR) T1-map pulse sequence, with static TE (10 ms) and variable TR (100, 200, 400, 500, 750, 1000, 2500, 5000, 7500, and 10000 ms) values. […]
substance,measurement,setting,value
"Cu[Pz(C19H28N8O7Gd)2]. Pz=18,21-bis(2-(1H-1,2,3-triazole-4-yl) ethoxy)-tris-[1,4-dioxino[g,l,q](2R,3R)-2,3-dimethoxy-2,3-dimethyll 25H,27H-benzo[b]porphyrazine; C19H28N8O7Gd=N-methyl-2-aminoacetamide-4,7,10-tris(carboxymethyl)-1,4,7,10-tetraazacyclododecylgadolinium(III)) [Cu-Pz-Gd(III)]",solution-phase ionic relaxivity relative to DOTA-Gd(III),[1]; compared with clinically-used monomeric DOTA-Gd(III),about four times greater
same,Ionic r1,"[1]; per Gd(III), water, 1.41 T (60 MHz), 37° C.",11.5 mM^−1 S^−1
same,Molecular r1,"[1]; per molecule (2 Gd(III)), water, 1.41 T (60 MHz), 37° C.",23.0 mM^−1 S^−1
same,solution phase molecular relaxivity (r1),"[1]; text of b56, unit inferred",23 mM⁻¹ s⁻¹
same,MR image intensity of cell pellets,"MDA-MB-231 cells; MDA-MB-231, 200 μM, vs Zn-Pz-Gd(III), DOTA-Gd(III) or vehicle",significant increases in image intensity
same,contrast to noise ratio (CNR),"MDA-MB-231 cells; MDA-MB-231 cell pellets, 200 μM complex (400 μM wrt Gd(III)), 24 hours, 9.4 T, 25° C.",9.336±0.335 and 9.336
